Measured values from US6897228B2, “Pyridoxine and pyridoxal analogues: new uses” (Medicure International Inc., priority 2000, dated 2005).

How the values were obtained:
[1] = system: male Sprague-Dawley rats, occlusion of the left coronary artery; test: In vivo hypertrophy after coronary artery ligation; details: rat model of Example 20
Procedure: (§1) Food and water were supplied ad libitum. […] Hemodynamic and histological assessments were made.
Hypertrophy is a physiological condition of enlargement (increased mass) due to increased stress. Cardiac hypertrophy is assessed by calculating the heart to body mass ratio. Treatment with PLP or compound XXIIb results in a decrease in cardiac hypertrophy, in the rat model described in Example 20.

[2] = system: male Sprague-Dawley rats, occlusion of the left coronary artery; test: In vivo hemodynamic changes after coronary artery ligation; details: day 21 after coronary ligation; 10 mg/kg daily by gastric tube
[3] = system: platelets (platelet rich plasma); test: Inhibition of platelet aggregation (aggregometer, platelet rich plasma); type: cell-based; details: for Extent of aggregation as a percentage amplitude, 1 μg/mL collagen: agonist 1 μg/mL collagen; for Extent of aggregation as a percentage amplitude, 4 μM ADP: agonist 4 μM ADP; for Extent of aggregation as a percentage amplitude, 5 μg/mL collagen: agonist 5 μg/mL collagen; for Extent of aggregation as a percentage amplitude, 12 μM TRAP: agonist 12 μM TRAP
Procedure: Platelet rich plasma (PRP) was obtained by drawing whole blood into sodium citrate tubes (3.2%) and centrifuging at 700 rpm for 10 minutes. Platelet poor plasma (PPP) was obtained by centrifuging the remainder of the sample ntil the platelets were removed (3200 rpm for 10 minutes). The PRP was adjusted to a count of 280×10^9/L using a mixture of PRP and PPP. The incubation mixture consisted of 200 μL of platelets and 25 μL of the appropriate compound (18 mM stock for a final concentration of 2 mM and 4.5 mM stock for a final concentration of 500 μM), rendering an approximate final platelet count in the incubation mixture of 250×10^9/L. After incubation (30 minutes at room temperature, the cuvettes were incubated for 3 minutes at 37° C., transferred to the mixing wells and after the baselines transmittances were measured in an aggregometer (Chrono-Log 4), 25 μL of agonist was added to give a final concentration of 4 μM ADP, 1 μg/mL collagen, 5 μg/mL collagen or 12 μM thrombin receptor activating peptide (TRAP). Final transmittances were then measured in the aggregometer (lower percent transmittance represents higher aggregation). […] Table 24-1 gives the results of the extent of aggregation for several compounds as percentage amplitude read directly from the aggregometer.

[4] = system: male Sprague-Dawley rats, occlusion of the left coronary artery; test: In vivo infarct size and scar mass after coronary artery ligation; parameters: species or system rat; details: after 21 days, 10 mg/kg daily by gastric tube; for infarct size (as a percentage of left ventricle size): untreated control about 45
Procedure: as §1
After 21 days, once the hemodynamic data were obtained, the animals were sacrificed and both average dry scar mass to left ventricle mass (n=5/group) and infarct size (n=5/group) were measured. For infarct size measurement, hearts from the untreated and PLP/compound XXIIb-treated groups were fixed in formalin and embedded in paraffin. Six evenly spaced slices were cut across the left ventricle. […] sections were cut from each slice and mounted. Sections were stained with Trichrome to discriminate between fibrous scar and noninfarcted tissue. Using the free-drawing line tool in Scion Image v4.02b, infarct internal perimeter and left ventricle internal perimeter lengths were traced per oculum for each section. Noteworthy transmural scars were taken into account. Infarct size was then expressed as the average scar perimeter/ventricle perimeter ratio. Scar mass measurements were obtained by drying excised scar tissue and left ventricles at 50-60° C. for 72 hours.

| Molecule | cardiac hypertrophy (heart to body mass ratio) [1] | +dP/dt (rate of contraction) [2] | LVEDP in response to coronary occlusion [2] | −dP/dt (rate of relaxation) [2] | Extent of aggregation as a percentage amplitude, 1 μg/mL collagen ([3]; compound 500 μM) [%] | Extent of aggregation as a percentage amplitude, 4 μM ADP ([3]; compound 500 μM) [%] | Extent of aggregation as a percentage amplitude, 5 μg/mL collagen ([3]; compound 500 μM) [%] | Extent of aggregation as a percentage amplitude, 12 μM TRAP ([3]; compound 500 μM) [%] | Extent of aggregation as a percentage amplitude, 1 μg/mL collagen ([3]; compound 2 mM) [%] | Extent of aggregation as a percentage amplitude, 4 μM ADP ([3]; compound 2 mM) [%] | Extent of aggregation as a percentage amplitude, 5 μg/mL collagen ([3]; compound 2 mM) [%] | Extent of aggregation as a percentage amplitude, 12 μM TRAP ([3]; compound 2 mM) [%] | dry scar to left ventricle mass ratio [4] | infarct size (as a percentage of left ventricle size) [4] |
| --- | --- | --- | --- | --- | --- | --- | --- | --- | --- | --- | --- | --- | --- | --- |
| 4-methylimidazole pyridoxine [XXIIb] | decrease | recoveries | reduced rises | recoveries | 79 | 59 | 82 | 91 | 32 | 46 | 77 | 84 | reductions similar in magnitude to that seen in the PLP group | reduced |
| Cc1ncc(CNc2ccc(C(=N)N)cc2)c(CO)c1O [Compound XXXV] |  |  |  |  | 83 | 70 | 75 | 90 | 79 | 15 | 67 | 11 |  |  |
| Cc1ncc(COP(=O)(O)O)c(C=O)c1O [PLP, 3-hydroxy-2-methyl-5-[(phosphonooxy)methyl]-4-pyridine-carboxaldehyde, reference compound] | decrease | recoveries | reduced rises | recoveries | 89 | 69 | 87 | 90 | 84 | 16 | 89 | 91 | reduced | reduced |
